Tested on: non-transfected and Tm5NM1 stably transfected MEFs
Assay: MTT viability in non-transfected versus Tm5NM1 stably transfected MEFs
Assay type: cell-based, mouse
Details: 48 hr, FIG. 1
Protocol: FIG. 1: Activity of selected compounds against Tm5NM1/2 transfected mouse embryonic fibroblasts versus non-transfected MEFs.
Compounds 4001, 4010, 4014, 4008 and 4015 were then screened against non-transfected and Tm5NM1 stably transfected MEFs. Briefly, MEFs were transfected with pEYFP-C1/Tm5NM1 constructs using the Amaxa nucleofector apparatus (program A-023) and MEF nucleofector kit 1 (Lonza) according to the manufacturer's instructions. Cell viability assays were also conducted to assess the anti-proliferative effects of the anti-tropomyosin compounds. Briefly, cells (1×10^3/well) were plated (96-well) and treated (48 hr) with anti-tropomyosin compounds and viability measured using 3-(4,5-dimethylthiazol-2-yl)-2, 5-diphenylterazolium bromide MTT. Cell viability was normalized to control (vehicle alone) and dose-response curves, and half maximal effective concentration (EC50) values were determined using Graph Pad Prism 5 (nonlinear regression sigmoidal dose-response variable slope).

Cc1c(C)n(CCCN(C)C)c2ccc(CN3CCN(CCc4ccccc4)CC3)cc12 [Compound 4015, 3-(2,3-dimethyl-5-((4-phenethylpiperazin-1-yl)methyl)-1H-indol-1-yl)-N,N-dimethylpropan-1-amine]
Selectivity: toxicity against primary MEFs versus MEFs stably transfected with Tm5NM1/2: less toxicity noted against primary mouse embryonic fibroblasts (MEFs) compared with MEFs stably transfected with Tm5NM1/2
